Experimental data taken from US20250011285A1, “CYP11A1 INHIBITORS” (ORION CORPORATION, priority 2021, published 2025).

Each molecule was assayed against T1, CYP11A1 (Homo sapiens, UniProt P05108) (assay: CYP11A1 inhibition, isocaproic acid release assay (IARA) in H295R cells). Settings: human H295R adrenocortical carcinoma cells treated three days, 3 nM [24,25-3H]-labelled cholesterol, 1% DMSO; read-out: IC50 on CYP11A1 inhibition (Group).
T1 construct: human H295R adrenocortical carcinoma cell line was used as source of enzyme; endogenous in cells; host or cells: H295R human adrenocortical carcinoma cells
T1 sequence (P05108 40-521): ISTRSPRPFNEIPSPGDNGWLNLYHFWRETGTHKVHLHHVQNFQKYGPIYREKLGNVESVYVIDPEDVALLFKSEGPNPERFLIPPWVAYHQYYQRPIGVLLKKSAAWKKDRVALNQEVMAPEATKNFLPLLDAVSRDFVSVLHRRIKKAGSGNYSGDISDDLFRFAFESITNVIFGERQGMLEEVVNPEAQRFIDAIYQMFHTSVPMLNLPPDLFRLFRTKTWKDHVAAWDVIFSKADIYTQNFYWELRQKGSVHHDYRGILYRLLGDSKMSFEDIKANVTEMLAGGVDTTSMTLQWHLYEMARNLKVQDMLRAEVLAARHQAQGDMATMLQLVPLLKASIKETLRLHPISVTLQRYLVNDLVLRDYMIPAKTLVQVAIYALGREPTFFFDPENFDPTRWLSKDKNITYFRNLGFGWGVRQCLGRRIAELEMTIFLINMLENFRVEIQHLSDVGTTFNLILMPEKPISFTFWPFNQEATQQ
Format: cell-based
Protocol: The ability of the test compounds to inhibit conversion of cholesterol to pregnenolone and isocaproic acid was measured by modification of isocaproic acid release assay (IARA) described by Ruangwises et al. (Biology of Reproduction 1991; 45(1):143-50) except that human H295R adrenocortical carcinoma cell line was used as source of enzyme and extraction was done with dextran-coated charcoal suspension (Isomaa, V. et al., Endocrinology 1982; 111(3):833-843). […] To determine the half maximal inhibitory concentration (IC50) of the test compounds on CYP11A1 inhibition, the cells were treated for three days with increasing concentrations of the test compounds in the presence of 3 nM [24,25-3H]-labelled cholesterol (American Radiolabelled Chemicals).
The final DMSO concentration was 1%. Cell culture medium was extracted with dextran-coated charcoal suspension and the radiolabelled isocaproic acid was determined by mixing 100 μl of supernatant fraction in 200 μl of scintillation fluid (OptiPhase SuperMix, Perkin Elmer). Radioactivity was measured using a Microbeta scintillation counter (1450 MicroBeta Trilux, Wallac). All the test compounds were studied at 10 concentrations in duplicates.

SMILES	IC50 [nM]
CS(=O)(=O)N1CCC(COc2ccc(CN3Cc4ccccc4C3)cc2C(F)(F)F)CC1 [Compound 56]	151 to 350
CS(=N)(=O)c1ccc(COc2ccc(CN3Cc4ccccc4C3)c3ocnc23)cc1 (stereo not drawn) [Compound 45, Imino(4-(((7-(isoindolin-2-ylmethyl)benzo[d]oxazol-4-yl)oxy)methyl)phenyl)-(methyl)-λ^6-sulfanone]	351 to 1500
CS(=O)(=O)c1ccc(COc2ccc(CN3Cc4ccccc4C3)cc2C#N)cc1 [Compound 16, 5-(Isoindolin-2-ylmethyl)-2-((4-(methylsulfonyl)benzyl)oxy)benzonitrile]	151 to 350
CC(=O)c1cc(CN2Cc3ccccc3C2)ccc1OCC1CCN(S(C)(=O)=O)CC1 [Compound 48, 1-(5-(Isoindolin-2-ylmethyl)-2-((1-(methylsulfonyl)piperidin-4-yl)methoxy)-phenyl)ethan-1-one]	< 150
CS(=O)(=O)N1CCC(COc2ccc(CN3Cc4ccccc4C3)cc2C#N)CC1 [Compound 19, 5-(Isoindolin-2-ylmethyl)-2-((1-(methylsulfonyl)piperidin-4-yl)methoxy)-benzonitrile]	< 150
COc1c(OCC2CCN(C(=O)NC(C)C)CC2)ccc(CN2Cc3ccccc3C2)c1[N+](=O)[O-] [Compound 23, 4-((4-(Isoindolin-2-ylmethyl)-2-methoxy-3-nitrophenoxy)methyl)-N-isopropyl-piperidine-1-carboxamide]	351 to 1500
CS(=O)(=O)N1CCC(COc2ccc(CN3Cc4ccccc4C3)c3cccnc23)CC1 [Compound 51, 5-(Isoindolin-2-ylmethyl)-8-((1-(methylsulfonyl)piperidin-4-yl)methoxy)-quinoline]	< 150
CS(=O)(=O)N1CCC(COc2ccc(CN3Cc4ccccc4C3)c3cn[nH]c23)CC1 [Compound 38, 4-(Isoindolin-2-ylmethyl)-7-((1-(methylsulfonyl)piperidin-4-yl)methoxy)-1H-indazole]	< 150
CS(=O)(=O)c1ccc(COc2ccc(CN3Cc4ccccc4C3)cc2C(N)=O)cc1 [Compound 54, 5-(Isoindolin-2-ylmethyl)-2-((4-(methylsulfonyl)benzyl)oxy)benzamide]	< 150
COc1c(OCc2ccc(S(C)(=O)=O)cc2)ccc(CN2Cc3ccccc3C2)c1F [Compound 21, 2-(2-Fluoro-3-methoxy-4-((4-(methylsulfonyl)benzyl)oxy)benzyl)isoindoline]	< 150
CN(C)C(=O)c1cc(CN2Cc3ccccc3C2)ccc1OCc1ccc(S(C)(=O)=O)cc1 [Compound 17, 5-(Isoindolin-2-ylmethyl)-N,N-dimethyl-2-((4-(methylsulfonyl)benzyl)oxy)-benzamide]	351 to 1500
Cn1ncc2c(CN3Cc4ccccc4C3)ccc(OCC3CCN(S(C)(=O)=O)CC3)c21 [Compound 47, 4-(Isoindolin-2-ylmethyl)-1-methyl-7-((1-(methylsulfonyl)piperidin-4-yl)-methoxy)-1H-indazole]	< 150
COCCS(=O)(=O)c1ccc(COc2ccc(CN3Cc4ccccc4C3)cc2COC)cc1 [Compound 20, 2-(4-((4-((2-Methoxyethyl)sulfonyl)benzyl)oxy)-3-(methoxymethyl)benzyl)-isoindoline]	< 150
CC(=O)c1cc(CN2Cc3ccccc3C2)ccc1OCC1CCC(S(C)(=O)=O)CC1 (stereo not drawn) [Compound 50, 1-(5-(Isoindolin-2-ylmethyl)-2-((4-(methylsulfonyl)cyclohexyl)methoxy)-phenyl)ethan-1-one]	151 to 350
COCc1cc(CN2Cc3ccccc3C2)ccc1OCC1CCN(S(C)(=O)=O)CC1 [Compound 22, 2-(3-(Methoxymethyl)-4-((1-(methylsulfonyl)piperidin-4-yl)methoxy)benzyl)-isoindoline]	< 150
CN(C)C(=O)c1ccc(COc2ccc(CN3Cc4ccccc4C3)c(F)c2F)cc1 [Compound 27, 4-((2,3-Difluoro-4-(isoindolin-2-ylmethyl)phenoxy)methyl)-N,N-dimethyl-benzamide]	351 to 1500

Continued, values first:

IC50 [nM]	SMILES
< 150	COc1cc(CN2Cc3ccccc3C2)ccc1OCc1ccc(C(=O)N(C)C)cc1 [Compound 3, 4-((4-(Isoindolin-2-ylmethyl)-2-methoxyphenoxy)methyl)-N,N-dimethyl-benzamide]
351 to 1500	CN(C)C(=O)c1ccc(COc2ccc(CN3Cc4ccccc4C3)cc2N)cc1 [Compound 52, 4-((2-Amino-4-(isoindolin-2-ylmethyl)phenoxy)methyl)-N,N-dimethyl-benzamide]
351 to 1500	COC(=O)c1ccc(COc2ccc(CN3Cc4ccccc4C3)cc2)cc1 [Compound 2, Methyl 4-((4-(isoindolin-2-ylmethyl)phenoxy)methyl)benzoate]
351 to 1500	COC(=O)c1ccc(COc2ccc(CN3Cc4ccccc4C3)cc2OC)cc1 [Compound 1, Methyl 4-((4-(isoindolin-2-ylmethyl)-2-methoxyphenoxy)methyl) benzoate]
< 150	COCCNS(=O)(=O)c1ccc(COc2ccc(CN3Cc4ccccc4C3)cc2OC)cc1 [Compound 13, 4-((4-(Isoindolin-2-ylmethyl)-2-methoxyphenoxy)methyl)-N-(2-methoxyethyl)-benzenesulfonamide]
351 to 1500	CN(C)C(=O)c1ccc(COc2ccc(CN3Cc4ccccc4C3)cc2OC(F)(F)F)cc1 [Compound 29, 4-((4-(Isoindolin-2-ylmethyl)-2-(trifluoromethoxy)phenoxy)methyl)-N,N-dimethylbenzamide]
351 to 1500	COc1cc(CN2Cc3ccccc3C2)cc(F)c1OCc1ccc(C(=O)N(C)C)cc1 [Compound 28, 4-((2-Fluoro-4-(isoindolin-2-ylmethyl)-6-methoxyphenoxy)methyl)-N,N-di-methylbenzamide]
151 to 350	CN(C)C(=O)c1ccc(COc2ccc(CN3Cc4ccccc4C3)cc2O)cc1 [Compound 5, 4-((2-Hydroxy-4-(isoindolin-2-ylmethyl)phenoxy)methyl)-N,N-dimethyl-benzamide]
151 to 350	COc1cc(CN2Cc3ccccc3C2)ccc1OCc1ccc(C(=O)N(C)CCOC(C)=O)cc1 [Compound 36, 2-(4-((4-(Isoindolin-2-ylmethyl)-2-methoxyphenoxy)methyl)-N-methyl-benzamido)ethyl acetate]
< 150	COCCN(C)C(=O)c1ccc(COc2ccc(CN3Cc4ccccc4C3)cc2OC)cc1 [Compound 35, 4-((4-(Isoindolin-2-ylmethyl)-2-methoxyphenoxy)methyl)-N-(2-methoxyethyl)-N-methylbenzamide]
< 150	CN(C)C(=O)c1ccc(COc2ccc(CN3Cc4ccccc4C3)cc2[N+](=O)[O-])cc1 [Compound 40, 4-((4-(isoindolin-2-ylmethyl)-2-nitrophenoxy)methyl)-N,N-dimethylbenzamide]
< 150	CN(C)C(=O)c1ccc(COc2ccc(CN3Cc4ccccc4C3)cc2OCC(N)=O)cc1 [Compound 14, 4-((2-(2-Amino-2-oxoethoxy)-4-(isoindolin-2-ylmethyl)phenoxy)methyl)-N,N-dimethylbenzamide]
351 to 1500	COc1cc(CN2Cc3ccc(S(C)(=O)=O)cc3C2)ccc1OCc1ccc(C(=O)N(C)C)cc1 [Compound 32, 4-((2-Methoxy-4-((5-(methylsulfonyl)isoindolin-2-yl)methyl)phenoxy)methyl)-N,N-dimethylbenzamide]
351 to 1500	COc1cc(OCc2ccc(C(=O)N(C)C)cc2)ccc1CN1Cc2ccccc2C1 [Compound 31, 4-((4-(Isoindolin-2-ylmethyl)-3-methoxyphenoxy)methyl)-N,N-dimethyl-benzamide]
